# Like-named read-outs stand apart in the source and are kept apart here.
# Tests used:
# [1] = Apparent partition coefficient between 1-octanol and phosphate buffer pH 7.4; conditions: for logD: 1-octanol/0.02 M phosphate buffer pH 7.4, pH 7.4
# Protocol: (§3) The lipophilicity of the derivatives of the present invention and of TRH was assessed by measuring the apparent partition coefficients (P) of the compounds between 1-octanol and 0.02M phosphate buffer of pH 7.4.
# [2] = Chromatographic capacity factor k' by reversed-phase column chromatography (relative lipophilicity); type: physicochemical; conditions: Nova-PAK CN HP reversed-phase column; methanol-0.1% phosphoric acid (1:20 v/v) with 10^-3 M triethylamine
# From the text: The capacity factor k' of a solute is defined as: k'=(tr -t0)/t0 where tr is the retention time of the solute and t0 is the elution time of the solvent.
# [3] = molecular target: T1, pyroglutamyl aminopeptidase (PAPase I) (Bos taurus, UniProt A0ABI0NU39); assay: Degradation in buffer pH 7.4 containing pyroglutamyl aminopeptidase; conditions: for half-life: calf
# T1 sequence (A0ABI0NU39 1-214): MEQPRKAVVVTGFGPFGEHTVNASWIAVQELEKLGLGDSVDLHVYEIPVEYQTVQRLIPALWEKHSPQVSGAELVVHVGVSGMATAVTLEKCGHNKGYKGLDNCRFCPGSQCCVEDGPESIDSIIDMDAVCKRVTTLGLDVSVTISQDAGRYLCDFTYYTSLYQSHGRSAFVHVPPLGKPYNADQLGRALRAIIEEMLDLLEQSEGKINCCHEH
# Protocol: (§1) Solutions of various compounds of formula I in aqueous buffer solutions or 80% human plasma solutions as well as in a buffer solution (pH 7.4) containing pyroglutamyl aminopeptidase (a calf liver preparation obtained from Boehringer, Mannheim, F.R.G.) were kept at 37° C. The initial concentration of the derivatives was in the range 10^-5 -10^-3 M. At various times an aliquot of the solutions was withdrawn and analyzed by HPLC for remaining (intact) derivative as well as for TRH. For the plasma solutions the aliquot (250 μl) withdrawn was added to 500 μl of a 2% solution of zinc sulphate in methanol-water (1:1 v/v) in order to deproteinize the plasma. After mixing and centrifugation for 3 min at 13,000 rpm, 20 μl of the clear supernatant was analyzed by HPLC as described above. The reaction conditions used for the studies with the pyroglutamyl aminopeptidase enzyme were identical to those previously described by Bundgaard & Moss (1989).
# (§2) An HPLC method was used for the determination of TRH and its derivatives. […] For the determination of TRH formed upon hydrolysis of the various derivatives a mobile phase system consisting of acetonitrile-0.1% phosphoric acid (1:20 v/v) containing […] triethylamine was used. The flow rate was 1.5 ml min and the column effluent was monitored at 215 nm. Quantitation of the compounds was done by measuring the peak heights in relation to those of standards chromatographed under the same conditions.
# [4] = Hydrolysis in aqueous buffer solutions (HPLC); type: physicochemical
# Protocol: as §1, with “Solutions of various compounds of formula I in aqueous buffer solutions or 80% human plasma solutions as well as in a buffer solution (pH 7.4) containing pyroglutamyl aminopeptidase (a calf liver preparation obtained from Boehringer, Mannheim, F.R.G.) were kept at 37° C.” left out
# as §2
# in vitro = conditions: for half-life: human, plasma
# Protocol: as §1, §2
# For the consideration of the derivatives as prodrugs of TRH a crucial point is evidently their degradation pathways. Ideally, the compounds should be hydrolyzed in plasma at the imidazole-protected moiety, releasing TRH in quantitative amounts.
# The reactions taking place in plasma can be illustrated as shown in Scheme 1.
# [5] = in vivo, iv; cited from earlier work
# [6] = rat, in vivo, iv; cited from earlier work
# physchem = conditions: pH 7.4
# Protocol: as §3
# [7] = Percutaneous absorption, in vitro diffusion through excised human skin (Franz cells); conditions: for steady-state flux: 5% prodrug in aqueous solution (pH 6.0)
# Protocol: The feasibility of achieving transdermal delivery of TRH via the prodrugs ot the present invention was evaluated by diffusion experiments in vitro using human skin samples.
# Whole abdominal human skin obtained under autopsy was used. The skin was stored at -18° C. and was allowed to thaw gradually at room temperature before use. All subcutaneous fat was removed and the skin cut into pieces. […] The dermal side of the skin was exposed to the receptor medium (5 ml of 0.05M isotonic phosphate buffer solution of pH 7.2) which was stirred magnetically and kept at a constant temperature of 37° C. with a circulating water bath.
# The compounds were applied as 5% w/v solutions in 0.05M phosphate buffer (final pH being 6.0) or propylene glycol (100 or 200 μl). At appropriate intervals samples of 1 ml were removed from the receptor phase and replaced with fresh buffer. The samples were immediately analyzed for TRH and prodrug content by HPLC as described above. The permeation studies of each compound in each vehicle were done in triplicate.
logD [1],log k' [2],half-life [3] [min],"Half-lives at 37° C., pH 7.4 buffer [4] [h]",half-life (in vitro) [min],SMILES,also measured
-1.3,0.85,23,14.2,228,CCOC(=O)n1cnc(C[C@H](NC(=O)[C@@H]2CCC(=O)N2)C(=O)N2CCC[C@H]2C(N)=O)c1 [C2 H5],–
-0.11,–,7,9.0,–,NC(=O)[C@@H]1CCCN1C(=O)[C@H](Cc1cn(C(=O)OCc2ccccc2)cn1)NC(=O)[C@@H]1CCC(=O)N1 [CH2 C6 H5],–
-1.1,–,–,–,–,NC(=O)[C@@H]1CCCN1C(=O)[C@H](Cc1cn(C(=O)OCCCl)cn1)NC(=O)[C@@H]1CCC(=O)N1 [CH2 CH2 Cl],–
1.82,–,–,–,–,CCCCC(CC)COC(=O)n1cnc(C[C@H](NC(=O)[C@@H]2CCC(=O)N2)C(=O)N2CCC[C@H]2C(N)=O)c1 (stereo partly shown) [CH2 CH(C2 H5)C4 H9],–
-0.44,1.09,11,19.0,258,CC(C)COC(=O)n1cnc(C[C@H](NC(=O)[C@@H]2CCC(=O)N2)C(=O)N2CCC[C@H]2C(N)=O)c1 [CH2 CH(CH3)2],–
–,0.71,12,9.3,168,COC(=O)n1cnc(C[C@H](NC(=O)[C@@H]2CCC(=O)N2)C(=O)N2CCC[C@H]2C(N)=O)c1 [CH3],"log P ([1]; octanol / 0.02 M phosphate buffer pH 7.4, 21° C.): 1.88"
0.2,–,–,–,–,CCC(CC)OC(=O)n1cnc(C[C@H](NC(=O)[C@@H]2CCC(=O)N2)C(=O)N2CCC[C@H]2C(N)=O)c1 [CH(C2 H5)2],–
1.2,–,–,–,–,CCCC(CCC)OC(=O)n1cnc(C[C@H](NC(=O)[C@@H]2CCC(=O)N2)C(=O)N2CCC[C@H]2C(N)=O)c1 [CH(C3 H7)2],–
-0.8,0.96,29,35.8,396,CC(C)OC(=O)n1cnc(C[C@H](NC(=O)[C@@H]2CCC(=O)N2)C(=O)N2CCC[C@H]2C(N)=O)c1 [CH(CH3)2],–
–,< 0.4,–,–,9,"NC(=O)[C@@H]1CCCN1C(=O)[C@H](Cc1cnc[nH]1)NC(=O)[C@@H]1CCC(=O)N1 [TRH, pGlu-L-His-L-ProNH2, reference compound]","plasma half-life [5]: 4 to 6 min; half-life ([3]; isolated enzyme aminopeptidase, pH 7.4): 4 min; Half-lives at 37° C., pyroglutamyl aminopeptidase ([3]; pH 7.4): 4 min; plasma half-life [6]: 4 to 6 min; Half-life at 37° C., 80% v/v human plasma (in vitro): 9 min; zero-order rate constant of degradation (in vitro): 7.2e-07 M/min; logD (physchem): -2.46"
-0.47,1.07,11,19.0,258,CCCCOC(=O)n1cnc(C[C@H](NC(=O)[C@@H]2CCC(=O)N2)C(=O)N2CCC[C@H]2C(N)=O)c1 [n-C4 H9],–
0.71,1.29,8,17.9,72,"CCCCCCOC(=O)n1cnc(C[C@H](NC(=O)[C@@H]2CCC(=O)N2)C(=O)N2CCC[C@H]2C(N)=O)c1 [n-C6 H13, N-Hexyloxycarbonyl TRH]",–
1.88,1.50,24,17.5,30,"CCCCCCCCOC(=O)n1cnc(C[C@H](NC(=O)[C@@H]2CCC(=O)N2)C(=O)N2CCC[C@H]2C(N)=O)c1 [n-C8 H17, N-Octyloxycarbonyl TRH]","time for 10% degradation ([4]; aqueous solution, pH 5.8, 20° C.): 76 h; steady-state flux ([7]; human skin): 0.044±0.006 μmol TRH/h/cm^2; steady-state flux ([7]; human skin, converted from μmol): 16 μg TRH/h/cm^2; flux ([7]; 5% prodrug in propylene glycol, human skin): 3.6 μg/h/cm^2; conversion of applied prodrug to parent TRH during diffusion through skin ([7]; human skin samples): Essentially all"

SMILES,logD [1],log k' [2],half-life [3] [min],"Half-lives at 37° C., pH 7.4 buffer [4] [h]",half-life (in vitro) [min],also measured
NC(=O)[C@@H]1CCCN1C(=O)[C@H](Cc1cn(C(=O)OC2CCCCC2)cn1)NC(=O)[C@@H]1CCC(=O)N1 [C6 H10 (cyclohexyl)],0.6,1.28,22,36.8,384,–

# — patent publication US5405834A, “Prodrug derivatives of thyrotropin-releasing hormone (TRH)” (priority 1989, dated 1995)
